Holding throughout (assay type): functional
One assay has as its system Escherichia coli. Briefly: Antimicrobial activity against Escherichia coli UNSWO24101 after 48 hrs.
The subject of another assay is Micrococcus luteus. Briefly: Antimicrobial activity against Micrococcus luteus ATCC 9341 after 48 hrs. Particulars: ATCC 9341, 48 h.
Another assay deals with Staphylococcus aureus. Briefly: Antimicrobial activity against Staphylococcus aureus ATCC 6538 after 48 hrs. Particulars: ATCC 6538, 48 h.
Another assay relates to Saccharomyces cerevisiae. Briefly: Antimicrobial activity against Saccharomyces cerevisiae UNSA Y-40 after 48 hrs.

The structures appear in SMILES notation. Converted amounts (≈) assume the structure as drawn.

`C=CCc1ccc(O)c(OC)c1` [EUGENOL]: the MIC in the assay on Escherichia coli turned out to be 600 µg/mL (≈ 3.65 mM); in the assay with Micrococcus luteus it was 600 µg/mL (≈ 3.65 mM); in the assay on Staphylococcus aureus, 700 µg/mL (≈ 4.26 mM); in the assay with Saccharomyces cerevisiae, 400 µg/mL (≈ 2.44 mM).

Values taken from ChEMBL document CHEMBL1151363, “Chemical composition and biological activity of the Tanzanian plant Ocimum suave” (1981).
